What was measured:
Type in all cases: in vivo
Conditions in all cases: 500 g/h, evaluated after 13 days
[1] = tested on: Abutilon theophrasti (ABUTH); assay: Post-emergence herbicidal glasshouse test, Abutilon theophrasti (ABUTH)
Description: (§1) Seeds of a variety of test species are sown in standard soil in pots (Lolium perenne (LOLPE), Amaranthus retoflexus (AMARE), Abutilon theophrasti (ABUTH), Setaria faberi (SETFA), Echinochloa crus-galli (ECHCG), Ipomoea hederacea (IPOHE)). After cultivation for one day (pre-emergence) or after 8 days cultivation (post-emergence) under controlled conditions in a glasshouse (at 24/16° C., day/night; 14 hours light; 65% humidity), the plants are sprayed with an aqueous spray solution derived from the formulation of the technical active ingredient in acetone/water (50:50) solution containing 0.5% Tween 20 (polyoxyethelyene sorbitan monolaurate, CAS RN 9005-64-5). Compounds are applied at 500 g/h unless otherwise indicated. The test plants are then grown in a glasshouse under controlled conditions in a glasshouse (at 24/16° C., day/night; 14 hours light; 65% humidity) and watered twice daily. After 13 days for pre and post-emergence, the test is evaluated for the percentage damage caused to the plant. The biological activities are shown in the following table on a five point scale (5=80-100%; 4=60-79%; 3=40-59%; 2=20-39%; 1=0-19%).

[2] = tested on: Amaranthus retoflexus (AMARE); assay: Pre-emergence herbicidal glasshouse test, Amaranthus retoflexus (AMARE)
Description: as §1

[3] = tested on: Ipomoea hederacea (IPOHE); assay: Pre-emergence herbicidal glasshouse test, Ipomoea hederacea (IPOHE)
Description: as §1

[4] = tested on: Abutilon theophrasti (ABUTH); assay: Pre-emergence herbicidal glasshouse test, Abutilon theophrasti (ABUTH)
Description: as §1

Setaria faberi (SETFA) [5] = assay: Pre-emergence herbicidal glasshouse test, Setaria faberi (SETFA)
Description: as §1

[6] = tested on: Ipomoea hederacea (IPOHE); assay: Post-emergence herbicidal glasshouse test, Ipomoea hederacea (IPOHE)
Description: as §1

[7] = tested on: Echinochloa crus-galli (ECHCG); assay: Pre-emergence herbicidal glasshouse test, Echinochloa crus-galli (ECHCG)
Description: as §1

[8] = tested on: Amaranthus retoflexus (AMARE); assay: Post-emergence herbicidal glasshouse test, Amaranthus retoflexus (AMARE)
Description: as §1

Setaria faberi (SETFA) [9] = assay: Post-emergence herbicidal glasshouse test, Setaria faberi (SETFA)
Description: as §1

[10] = tested on: Echinochloa crus-galli (ECHCG); assay: Post-emergence herbicidal glasshouse test, Echinochloa crus-galli (ECHCG)
Description: as §1

| Compound | POST Application ABUTH, percentage damage (five point scale) [1] | PRE Application AMARE, percentage damage (five point scale) [2] | PRE Application IPOHE, percentage damage (five point scale) [3] | PRE Application ABUTH, percentage damage (five point scale) [4] | PRE Application SETFA, percentage damage (five point scale) (Setaria faberi (SETFA) [5]) | POST Application IPOHE, percentage damage (five point scale) [6] | PRE Application ECHCG, percentage damage (five point scale) [7] | POST Application AMARE, percentage damage (five point scale) [8] | POST Application SETFA, percentage damage (five point scale) (Setaria faberi (SETFA) [9]) | POST Application ECHCG, percentage damage (five point scale) [10] |
| --- | --- | --- | --- | --- | --- | --- | --- | --- | --- | --- |
| CCN(C=Nc1c(C(F)(F)F)ccc(C(=O)Nc2nnnn2C)c1Cl)CC [Compound 1.055] | 5 (5=80-100%) | 5 (5=80-100%) | 5 (5=80-100%) | 5 (5=80-100%) | 5 (5=80-100%) | 5 (5=80-100%) | 5 (5=80-100%) | 5 (5=80-100%) | 5 (5=80-100%) | 5 (5=80-100%) |
| CON=C(C)N(C)Cc1c(S(C)(=O)=O)ccc(C(=O)Nc2nnc(C)o2)c1Cl [Compound 5.016] | 3 (3=40-59%) | 5 (5=80-100%) | 5 (5=80-100%) | 5 (5=80-100%) | 5 (5=80-100%) | 4 (4=60-79%) | 5 (5=80-100%) | 4 (4=60-79%) | 5 (5=80-100%) | 5 (5=80-100%) |
| CN(C)C(=Nc1c(C(F)(F)F)ccc(C(=O)Nc2nnnn2C)c1Cl)C(F)(F)F [Compound 1.139] | 5 (5=80-100%) | 5 (5=80-100%) | 5 (5=80-100%) | 5 (5=80-100%) | 5 (5=80-100%) | 4 (4=60-79%) | 5 (5=80-100%) | 5 (5=80-100%) | 5 (5=80-100%) | 5 (5=80-100%) |
| CC(=NOCc1c(S(C)(=O)=O)ccc(C(=O)Nc2nnnn2C)c1Cl)N(C)C [Compound 1.129] | 5 (5=80-100%) | 5 (5=80-100%) | 5 (5=80-100%) | 5 (5=80-100%) | 5 (5=80-100%) | 5 (5=80-100%) | 5 (5=80-100%) | 5 (5=80-100%) | 5 (5=80-100%) | 5 (5=80-100%) |
| CON=C(C)N(C)Cc1c(C(F)(F)F)ccc(C(=O)Nc2nnnn2C)c1Cl [Compound 4.014] | 5 (5=80-100%) | 5 (5=80-100%) | 5 (5=80-100%) | 5 (5=80-100%) | 5 (5=80-100%) | 5 (5=80-100%) | 5 (5=80-100%) | 5 (5=80-100%) | 5 (5=80-100%) | 5 (5=80-100%) |
| Cc1c(C(=O)C2=C(O)CCCC2=O)ccc(S(C)(=O)=O)c1N=CN(C)C [Compound 3.025] | 5 (5=80-100%) | 5 (5=80-100%) | 4 (4=60-79%) | 5 (5=80-100%) | 4 (4=60-79%) | 5 (5=80-100%) | 5 (5=80-100%) | 5 (5=80-100%) | 5 (5=80-100%) | 5 (5=80-100%) |

From patent US11272709B2, “Amidine substituted benzoyl derivatives useful as herbicides” (Syngenta Participations AG, priority 2018, dated 2022)
